Data set [1] concerns colon cancer cell line COLO320DM. Description: Cell viability by colony counting (methylene blue staining). The conditions noted are these: 10 days.
Data set [2] relates to beta-catenin transcriptional activity. As to the kind of experiment: TCF/luciferase assay of beta-catenin transcriptional activity in HEK cells. The format is cell-based. The conditions noted are these: Homo sapiens, HEK293, read-out: β-catenin IC50 in HEK cells. The method, then:
To determine whether beta-catenin transcriptional activity is inhibited by the aryl-piperidine derivative compounds, compounds TI-61815 and TI-61910 were treated at various concentrations and examined in HEK cells using the TCF/luciferase assay system.

Data set [3] deals with colon cancer cell line COLO320DM. As to the kind of experiment: Cell viability by colony counting after co-treatment with 5-FU. The class given is cell-based. The conditions noted are these: Homo sapiens, COLO 320DM, 240 h, 10 days, read-out: cell viability inhibited when co-treated with 5-FU, compared to the sole treatment. The method, then:
Each cell line was purchased from the American Type Culture Collection (ATCC) and cultured respectively in RPMI 1640 (Roswell Park Memorial Institute 1640) medium supplemented with 10% fetal bovine serum (FBS), 100 μg/ml streptomycin, and 100 units/ml penicillin in the presence of 5% CO2 at 37° C.
Afterwards, the cell viability was identified by counting the number of colonies by staining with 1.5% methylene blue.

In another data set the target is PARP-2 (Homo sapiens, UniProt Q9UGN5). As to the kind of experiment: PARP-2 enzymatic activity inhibition. The class given is biochemical.
Sequence of PARP-2 (Q9UGN5 whole entry): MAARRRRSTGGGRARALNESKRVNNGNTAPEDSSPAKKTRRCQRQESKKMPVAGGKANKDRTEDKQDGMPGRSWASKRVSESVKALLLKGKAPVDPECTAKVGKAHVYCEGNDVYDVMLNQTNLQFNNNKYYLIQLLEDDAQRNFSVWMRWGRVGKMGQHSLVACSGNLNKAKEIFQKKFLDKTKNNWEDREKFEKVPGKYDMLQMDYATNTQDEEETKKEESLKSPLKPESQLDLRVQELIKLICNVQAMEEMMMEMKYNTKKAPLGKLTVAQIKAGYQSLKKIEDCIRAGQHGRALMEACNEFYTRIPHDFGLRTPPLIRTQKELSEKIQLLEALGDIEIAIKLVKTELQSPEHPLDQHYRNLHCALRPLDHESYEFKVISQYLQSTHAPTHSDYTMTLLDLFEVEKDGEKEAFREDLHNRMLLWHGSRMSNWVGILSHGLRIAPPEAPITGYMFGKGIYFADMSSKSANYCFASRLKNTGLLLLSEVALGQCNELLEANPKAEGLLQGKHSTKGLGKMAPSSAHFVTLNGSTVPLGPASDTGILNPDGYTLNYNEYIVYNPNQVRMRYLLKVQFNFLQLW
For data set [4], the system named is activated beta-catenin proteins. Description: Western blotting of activated beta-catenin protein in colon cancer cell lines. The format is cell-based, human. The conditions noted are these: COLO320DM and SW403, 10 μM, 24 hours. The source says: (§1) After protein extraction, proteins were quantified through Western blotting (Bio-Rad, USA).
On the technique in general: Immunoblotting shows a protein as a band on a membrane.

A further data set concerns the target T1, TNKS-2 (Homo sapiens, UniProt Q9H2K2).
T1 sequence (Q9H2K2 1-1166): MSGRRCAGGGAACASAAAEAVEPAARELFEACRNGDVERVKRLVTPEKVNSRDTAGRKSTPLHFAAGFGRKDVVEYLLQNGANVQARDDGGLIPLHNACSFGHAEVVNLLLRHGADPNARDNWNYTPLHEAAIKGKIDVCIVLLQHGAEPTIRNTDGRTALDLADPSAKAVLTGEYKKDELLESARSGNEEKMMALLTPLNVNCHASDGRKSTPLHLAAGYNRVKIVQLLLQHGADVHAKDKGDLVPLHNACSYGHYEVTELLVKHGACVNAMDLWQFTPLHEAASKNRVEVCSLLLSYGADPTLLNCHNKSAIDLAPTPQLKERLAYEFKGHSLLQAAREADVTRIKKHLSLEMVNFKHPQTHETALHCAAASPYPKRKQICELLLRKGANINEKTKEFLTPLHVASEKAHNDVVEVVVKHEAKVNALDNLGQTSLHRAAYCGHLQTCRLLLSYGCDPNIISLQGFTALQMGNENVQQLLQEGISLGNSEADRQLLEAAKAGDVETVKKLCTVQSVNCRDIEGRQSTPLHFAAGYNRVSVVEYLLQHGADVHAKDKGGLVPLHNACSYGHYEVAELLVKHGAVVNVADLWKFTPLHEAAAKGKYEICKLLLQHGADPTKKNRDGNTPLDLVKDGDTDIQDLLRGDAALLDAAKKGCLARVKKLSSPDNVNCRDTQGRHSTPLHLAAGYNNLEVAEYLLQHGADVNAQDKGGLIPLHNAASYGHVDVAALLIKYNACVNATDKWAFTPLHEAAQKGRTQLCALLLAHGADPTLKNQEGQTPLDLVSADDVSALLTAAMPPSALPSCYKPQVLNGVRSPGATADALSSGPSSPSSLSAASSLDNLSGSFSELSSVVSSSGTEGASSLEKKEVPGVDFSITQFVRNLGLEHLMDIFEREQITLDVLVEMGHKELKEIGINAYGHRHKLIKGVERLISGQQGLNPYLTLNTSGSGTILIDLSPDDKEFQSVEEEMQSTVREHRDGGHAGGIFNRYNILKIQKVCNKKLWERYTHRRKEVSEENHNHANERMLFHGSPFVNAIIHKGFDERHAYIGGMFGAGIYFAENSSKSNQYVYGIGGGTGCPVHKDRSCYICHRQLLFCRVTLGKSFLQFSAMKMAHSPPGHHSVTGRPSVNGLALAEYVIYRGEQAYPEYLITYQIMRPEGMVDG
As to the kind of experiment: TNKS-2 enzymatic activity inhibition. The format is biochemical.

The next data set relates to AXIN2 protein. As to the kind of experiment: Western blotting of AXIN2 protein in colon cancer cell lines. The conditions noted are these: COLO320DM and SW403, 10 μM, 24 hours. The class given is cell-based, human.
Source text: as §1

The target in the next data set is T2, TNKS-1 (Homo sapiens, UniProt O95271).
T2 construct: purchased BPS Bioscience 80582
T2 sequence (O95271 1-1327): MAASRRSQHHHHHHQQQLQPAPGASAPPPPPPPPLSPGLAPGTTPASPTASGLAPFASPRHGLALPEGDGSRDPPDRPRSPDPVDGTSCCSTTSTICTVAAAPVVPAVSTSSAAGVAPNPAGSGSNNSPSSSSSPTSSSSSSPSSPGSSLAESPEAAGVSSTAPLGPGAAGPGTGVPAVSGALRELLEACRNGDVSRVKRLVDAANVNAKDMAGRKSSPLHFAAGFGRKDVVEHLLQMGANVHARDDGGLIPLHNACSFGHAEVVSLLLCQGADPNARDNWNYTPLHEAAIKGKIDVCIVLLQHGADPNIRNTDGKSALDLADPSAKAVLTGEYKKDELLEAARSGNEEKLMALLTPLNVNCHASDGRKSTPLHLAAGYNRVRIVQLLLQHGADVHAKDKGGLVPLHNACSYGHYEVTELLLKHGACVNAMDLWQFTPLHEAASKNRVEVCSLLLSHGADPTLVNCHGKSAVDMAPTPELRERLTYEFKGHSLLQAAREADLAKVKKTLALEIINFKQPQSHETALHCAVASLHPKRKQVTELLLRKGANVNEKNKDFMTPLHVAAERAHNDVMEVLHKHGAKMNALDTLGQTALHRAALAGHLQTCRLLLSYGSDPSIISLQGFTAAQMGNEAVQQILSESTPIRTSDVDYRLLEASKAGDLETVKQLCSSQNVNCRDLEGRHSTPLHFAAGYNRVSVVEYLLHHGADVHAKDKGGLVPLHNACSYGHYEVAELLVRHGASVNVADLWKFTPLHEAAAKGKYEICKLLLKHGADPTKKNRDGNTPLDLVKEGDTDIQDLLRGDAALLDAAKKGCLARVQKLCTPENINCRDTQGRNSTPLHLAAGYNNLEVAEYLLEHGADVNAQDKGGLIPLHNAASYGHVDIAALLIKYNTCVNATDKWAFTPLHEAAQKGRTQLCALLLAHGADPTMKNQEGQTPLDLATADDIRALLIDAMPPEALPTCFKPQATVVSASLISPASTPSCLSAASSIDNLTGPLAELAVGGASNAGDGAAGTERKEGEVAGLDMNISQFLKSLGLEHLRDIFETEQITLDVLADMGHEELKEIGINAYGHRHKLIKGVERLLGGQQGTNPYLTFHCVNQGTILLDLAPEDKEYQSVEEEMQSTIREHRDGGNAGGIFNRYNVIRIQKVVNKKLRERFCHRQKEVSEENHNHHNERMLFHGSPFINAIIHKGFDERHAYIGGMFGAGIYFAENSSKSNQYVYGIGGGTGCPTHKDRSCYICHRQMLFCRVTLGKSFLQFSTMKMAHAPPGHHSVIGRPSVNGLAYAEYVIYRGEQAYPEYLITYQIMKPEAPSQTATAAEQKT
As to the kind of experiment: TNKS1 Histone Ribosylation Colorimetric Assay Kit (tankyrase-1 colorimetric activity assay). The format is biochemical.

For another data set, the target named is T3, PARP-1 (Homo sapiens, UniProt P09874).
T3 construct: purchased BPS Bioscience 80580
T3 sequence (P09874 whole entry): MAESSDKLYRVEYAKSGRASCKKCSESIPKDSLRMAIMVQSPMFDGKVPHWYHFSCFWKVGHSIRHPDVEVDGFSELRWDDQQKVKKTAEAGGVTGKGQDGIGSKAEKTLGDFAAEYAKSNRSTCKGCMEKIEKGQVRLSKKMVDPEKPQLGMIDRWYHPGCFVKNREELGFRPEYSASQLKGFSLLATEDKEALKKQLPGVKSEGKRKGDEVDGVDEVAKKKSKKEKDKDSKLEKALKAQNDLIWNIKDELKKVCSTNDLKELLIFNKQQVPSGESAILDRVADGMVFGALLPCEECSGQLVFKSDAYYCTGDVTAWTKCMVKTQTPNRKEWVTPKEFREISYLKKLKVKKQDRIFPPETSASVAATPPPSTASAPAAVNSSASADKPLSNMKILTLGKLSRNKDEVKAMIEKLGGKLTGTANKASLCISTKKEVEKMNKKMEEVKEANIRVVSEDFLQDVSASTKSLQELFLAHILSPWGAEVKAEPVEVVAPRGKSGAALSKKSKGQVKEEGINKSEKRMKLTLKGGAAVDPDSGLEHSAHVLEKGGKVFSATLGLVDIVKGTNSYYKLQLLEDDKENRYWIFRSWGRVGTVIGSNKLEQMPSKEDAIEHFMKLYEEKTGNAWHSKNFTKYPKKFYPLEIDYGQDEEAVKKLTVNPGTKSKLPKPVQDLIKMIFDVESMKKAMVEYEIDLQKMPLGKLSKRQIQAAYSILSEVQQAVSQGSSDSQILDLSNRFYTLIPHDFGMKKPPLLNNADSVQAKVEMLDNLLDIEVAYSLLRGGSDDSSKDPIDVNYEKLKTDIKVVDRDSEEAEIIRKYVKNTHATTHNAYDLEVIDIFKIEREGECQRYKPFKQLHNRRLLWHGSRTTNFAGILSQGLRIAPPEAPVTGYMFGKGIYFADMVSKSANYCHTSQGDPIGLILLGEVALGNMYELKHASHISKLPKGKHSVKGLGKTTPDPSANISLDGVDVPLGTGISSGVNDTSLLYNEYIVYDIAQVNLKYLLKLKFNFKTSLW
Description: PARP-1 colorimetric activity assay kit. The format is biochemical.

The test system of data set [5] is beta-catenin subgenes (AXIN2, CCND1, cMYC, FGF20). Description: Real-time PCR of beta-catenin subgene expression. The class given is cell-based, human. The conditions noted are these: COLO320DM, 10 μM, 24 hours. From the text: After RNA extraction, cDNA was synthesized to quantify gene expression via real-time PCR.
A general note: Quantitative PCR measures a nucleic acid by following its amplification.

The term pIC50 denotes the IC50 on a negative log10 scale, so that one unit is a factor of ten.

SMILES strings stand for the structures. pIC50: −log10 of the molar value.

On to `N#Cc1ccccc1N1CCC(CC(=O)Nc2nnc3ccccn23)CC1` [TI-61815, N-([1,2,4]triazolo[4,3-a]pyridin-3-yl)-2-(1-(2-cyanophenyl)piperidin-4-yl)acetamide], for which the “cell viability (in words)” value in data set [1] (2.5 μM to 40 μM) is reported as “decreased in a concentration-dependent manner”. In [1] (40 μM), this molecule returned a cell viability inhibited of 61.4%. Further, the pIC50 is 6.08 in data set [2]; 5.22 against PARP-2; 7.31 against TNKS-2; 7.19 against TNKS-1; 5.12 against PARP-1. Besides, the cytotoxicity at 5 µM in data set [3] (5 μM compound + 0.5 μM 5-FU) worked out at 12.4%. Besides, the cytotoxicity at 10 µM in data set [3] (10 μM compound + 0.5 μM 5-FU) came to 27.8%. Moreover, the “levels of the activated beta-catenin proteins” value in data set [4] is reported as “inhibited levels of the activated beta-catenin proteins”. The AXIN2 protein levels entry in the data set on AXIN2 protein is reported as “stabilization of AXIN2 protein levels”. Further, on TNKS-1 (read-out: TNKS-1 inhibitory activity (10 μM), 10 μM compound), the inhibition at 10 µM was not below 95%. The “inhibition of enzymatic activity of PARP-1 (in words)” value at PARP-1 (1 μM) is given as “almost no decrease in the inhibition of enzymatic activity of PARP-1”. Besides, the “expression levels of beta-catenin subgenes (AXIN2, CCND1, cMYC, FGF20)” value in [5] is on record as “inhibited the expression levels of beta-catenin subgenes”.

These data come from patent publication US20260242336A1, “COMPOSITION FOR PREVENTING OR TREATING CANCER DISEASES COMPRISING ARYL-PIPERIDINE DERIVATIVE” (KOREA RESEARCH INSTITUTE OF CHEMICAL TECHNOLOGY, priority 2023, published 2026).
